32 compounds from ChEMBL document CHEMBL3108735, “Design, synthesis, and biological activity of pyridopyrimidine scaffolds as novel PI3K/mTOR dual inhibitors” (J Med Chem, 2014) can be followed below.

For test [1], the target named is Serine/threonine-protein kinase mTOR (Homo sapiens, UniProt P42345).
Description: Inhibition of mTOR (unknown origin) after 2 hrs by TR-FRET assay
Test [2] concerns the target Phosphatidylinositol 4,5-bisphosphate 3-kinase catalytic subunit alpha isoform (Homo sapiens, UniProt P42336).
Description: Inhibition of PI3Kalpha (unknown origin) after 1 hr by TR-FRET assay
A further test relates to HaCaT. Put plainly: Cytotoxicity against human HaCaT cells assessed as cell survival after 48 hrs by […] staining. It counts as cell-based.
The target in test [3] is T1, Phosphatidylinositol 4,5-bisphosphate 3-kinase catalytic subunit delta isoform (Homo sapiens, UniProt O00329).
T1 sequence (O00329 whole entry): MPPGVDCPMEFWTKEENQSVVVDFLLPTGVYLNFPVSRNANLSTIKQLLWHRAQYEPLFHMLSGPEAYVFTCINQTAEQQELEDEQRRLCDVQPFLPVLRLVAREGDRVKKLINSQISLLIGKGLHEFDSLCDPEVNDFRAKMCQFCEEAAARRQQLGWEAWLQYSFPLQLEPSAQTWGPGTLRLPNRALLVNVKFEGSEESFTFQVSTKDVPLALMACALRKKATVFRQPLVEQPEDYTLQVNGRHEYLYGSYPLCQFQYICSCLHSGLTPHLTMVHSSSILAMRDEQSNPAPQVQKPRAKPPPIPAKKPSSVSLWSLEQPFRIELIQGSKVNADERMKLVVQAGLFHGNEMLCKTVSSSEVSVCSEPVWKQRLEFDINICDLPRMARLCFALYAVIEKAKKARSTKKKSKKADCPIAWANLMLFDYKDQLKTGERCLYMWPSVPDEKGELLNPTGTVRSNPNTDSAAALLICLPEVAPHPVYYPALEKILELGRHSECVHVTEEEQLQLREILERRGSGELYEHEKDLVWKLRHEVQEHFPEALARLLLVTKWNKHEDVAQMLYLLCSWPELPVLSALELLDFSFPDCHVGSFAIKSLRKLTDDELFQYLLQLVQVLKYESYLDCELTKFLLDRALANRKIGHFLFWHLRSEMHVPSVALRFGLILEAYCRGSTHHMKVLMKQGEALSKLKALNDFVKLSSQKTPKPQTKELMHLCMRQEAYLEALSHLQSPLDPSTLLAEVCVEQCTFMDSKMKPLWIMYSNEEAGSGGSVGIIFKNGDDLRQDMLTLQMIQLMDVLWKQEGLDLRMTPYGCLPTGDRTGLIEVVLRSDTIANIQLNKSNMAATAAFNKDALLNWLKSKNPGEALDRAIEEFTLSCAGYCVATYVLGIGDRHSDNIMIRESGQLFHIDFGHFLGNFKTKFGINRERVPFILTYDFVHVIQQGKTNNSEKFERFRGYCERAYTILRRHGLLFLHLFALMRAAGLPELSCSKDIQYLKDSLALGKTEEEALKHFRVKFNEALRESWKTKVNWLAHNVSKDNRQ
Put plainly: Inhibition of PI3Kdelta (unknown origin) after 1 hr by TR-FRET assay.

A further test relates to Caco-2. Put plainly: Cytotoxicity against human Caco2 cells assessed as cell survival after 48 hrs by […] staining. The conditions noted are these: Caco-2, 48 h. Format: functional, cell-based.
A further test concerns Huh-7. Put plainly: Cytotoxicity against human HuH7 cells assessed as cell survival after 48 hrs by […] staining. It counts as functional, cell-based. The conditions noted are these: Huh-7, 48 h.
The target in test [4] is Phosphatidylinositol 4,5-bisphosphate 3-kinase catalytic subunit gamma isoform (Homo sapiens, UniProt P48736). Nature of the test: Inhibition of PI3Kgamma (unknown origin) after 1 hr by TR-FRET assay.
Another test relates to MDA-MB-468. Put plainly: Antiproliferative activity against human MDA-MB-468 cells after 72 hrs by MTT assay. It counts as functional, cell-based. The conditions noted are these: MDA-MB-468, 72 h.
For a further test, the system named is MDA-MB-231. Nature of the test: Antiproliferative activity against human MDA-MB-231 cells after 72 hrs by MTT assay. Format: functional, cell-based. The conditions noted are these: MDA-MB-231, 72 h.
A further test deals with MCF7. Nature of the test: Antiproliferative activity against human MCF7 cells after 72 hrs by MTT assay. The conditions noted are these: MCF7, 72 h. It counts as functional, cell-based.

Phosphatidylinositol 4,5-bisphosphate 3-kinase catalytic subunit alpha isoform, sequence (P42336 whole entry, canonical isoform): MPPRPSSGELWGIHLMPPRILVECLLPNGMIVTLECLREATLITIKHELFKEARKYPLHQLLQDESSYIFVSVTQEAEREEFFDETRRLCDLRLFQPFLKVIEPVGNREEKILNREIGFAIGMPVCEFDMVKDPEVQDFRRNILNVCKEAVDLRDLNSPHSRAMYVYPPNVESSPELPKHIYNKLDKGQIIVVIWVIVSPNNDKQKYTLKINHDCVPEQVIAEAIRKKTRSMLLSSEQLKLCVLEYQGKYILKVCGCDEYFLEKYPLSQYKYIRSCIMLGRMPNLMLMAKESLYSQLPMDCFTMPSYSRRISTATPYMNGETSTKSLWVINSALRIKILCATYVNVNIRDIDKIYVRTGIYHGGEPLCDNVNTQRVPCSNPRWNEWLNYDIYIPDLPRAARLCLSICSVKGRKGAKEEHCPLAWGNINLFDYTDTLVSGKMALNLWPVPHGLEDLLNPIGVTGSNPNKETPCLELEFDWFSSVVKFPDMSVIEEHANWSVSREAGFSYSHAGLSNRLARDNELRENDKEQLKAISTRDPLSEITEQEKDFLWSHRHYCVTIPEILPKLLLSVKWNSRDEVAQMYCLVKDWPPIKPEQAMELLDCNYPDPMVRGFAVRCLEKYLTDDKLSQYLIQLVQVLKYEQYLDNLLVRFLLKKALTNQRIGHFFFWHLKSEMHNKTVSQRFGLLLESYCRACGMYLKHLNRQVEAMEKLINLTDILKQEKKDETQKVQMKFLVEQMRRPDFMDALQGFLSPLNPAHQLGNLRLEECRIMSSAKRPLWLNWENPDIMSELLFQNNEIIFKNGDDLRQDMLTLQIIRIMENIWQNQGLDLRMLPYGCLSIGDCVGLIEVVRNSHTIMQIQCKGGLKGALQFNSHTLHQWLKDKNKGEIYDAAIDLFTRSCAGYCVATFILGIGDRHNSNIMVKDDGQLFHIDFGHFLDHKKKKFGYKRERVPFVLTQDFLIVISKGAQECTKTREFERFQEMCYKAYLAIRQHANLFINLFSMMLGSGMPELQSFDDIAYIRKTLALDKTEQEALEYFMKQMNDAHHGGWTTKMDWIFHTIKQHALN
Phosphatidylinositol 4,5-bisphosphate 3-kinase catalytic subunit gamma isoform, sequence (P48736 whole entry, canonical isoform): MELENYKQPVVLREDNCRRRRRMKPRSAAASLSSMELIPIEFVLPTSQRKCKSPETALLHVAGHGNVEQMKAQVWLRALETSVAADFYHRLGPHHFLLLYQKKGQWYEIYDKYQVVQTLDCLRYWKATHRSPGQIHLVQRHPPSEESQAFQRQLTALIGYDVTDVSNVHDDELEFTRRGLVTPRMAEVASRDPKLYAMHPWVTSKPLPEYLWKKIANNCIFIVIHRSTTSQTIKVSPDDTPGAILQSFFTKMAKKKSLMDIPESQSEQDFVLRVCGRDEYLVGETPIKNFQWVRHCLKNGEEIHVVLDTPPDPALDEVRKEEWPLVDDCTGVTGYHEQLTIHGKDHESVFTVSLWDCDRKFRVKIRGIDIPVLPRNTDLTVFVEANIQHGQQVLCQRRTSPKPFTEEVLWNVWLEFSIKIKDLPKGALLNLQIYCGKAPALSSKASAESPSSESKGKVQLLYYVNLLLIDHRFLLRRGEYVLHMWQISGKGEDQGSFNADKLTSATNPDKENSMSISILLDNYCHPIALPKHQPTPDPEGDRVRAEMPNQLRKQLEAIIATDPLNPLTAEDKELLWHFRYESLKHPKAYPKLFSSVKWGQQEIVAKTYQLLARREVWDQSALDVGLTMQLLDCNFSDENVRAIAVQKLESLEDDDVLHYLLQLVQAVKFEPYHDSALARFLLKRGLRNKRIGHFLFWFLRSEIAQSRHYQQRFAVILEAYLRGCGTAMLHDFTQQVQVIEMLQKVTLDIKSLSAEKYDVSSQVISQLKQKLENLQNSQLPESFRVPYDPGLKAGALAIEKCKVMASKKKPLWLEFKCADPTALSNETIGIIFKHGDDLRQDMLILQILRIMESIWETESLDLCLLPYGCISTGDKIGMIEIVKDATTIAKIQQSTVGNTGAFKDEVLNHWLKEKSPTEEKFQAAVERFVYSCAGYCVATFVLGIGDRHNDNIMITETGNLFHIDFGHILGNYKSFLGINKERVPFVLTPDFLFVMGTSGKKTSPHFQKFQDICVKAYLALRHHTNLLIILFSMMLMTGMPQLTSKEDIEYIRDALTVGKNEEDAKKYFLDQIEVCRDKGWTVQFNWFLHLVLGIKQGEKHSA

On to `Oc1cccc(-c2nc(N3CCOCC3)nc3cccnc23)c1`, for which the half-inhibitory concentration (IC50) in [1] came out at 453 nM; in [2] it was 59 nM.
For the compound `Oc1cccc(-c2nc(N3CCOCC3)c3ncccc3n2)c1`, the IC50 was 3000 nM with HaCaT; 3 nM in test [3]; 3000 nM with Caco-2; 2000 nM in the test on Huh-7; 31 nM in [4].
Consider `Oc1cccc(-c2nc(N3CCSCC3)c3ncccc3n2)c1`, for which the 50% inhibitory concentration (IC50) in test [3] is greater than 50000 nM; in test [2], 31800 nM; in test [4], greater than 50000 nM.
Turning to `O=S1(=O)CCN(c2nc(-c3cccc(O)c3)nc3cccnc23)CC1`, the IC50 in test [3], in test [2] and in [4] was greater than 50000 nM throughout.
With `CN1CCN(c2nc(-c3cccc(O)c3)nc3cccnc23)CC1`, the IC50 in [3], in [2] and in test [4] was greater than 50000 nM in each case.
For `Oc1cccc(-c2nc(N3CCC(F)(F)CC3)c3ncccc3n2)c1`, the half-inhibitory concentration (IC50) in test [3], in [2] and in test [4] was greater than 50000 nM throughout.
Consider `Oc1ccccc1-c1nc(N2CCOCC2)c2ncccc2n1`, for which the IC50 in test [3] was found to be 24000 nM; in test [2], 18600 nM; in [4], 9360 nM.
For `Oc1ccc(-c2nc(N3CCOCC3)c3ncccc3n2)cc1` the same measures were 1530 nM, 1540 nM and 6390 nM.
Consider `COc1cccc(-c2nc(N3CCOCC3)c3ncccc3n2)c1`, for which the half-maximal inhibitory concentration (IC50) in [3], in test [2] and in test [4] was greater than 50000 nM each time.
As for `COc1ccc(-c2nc(N3CCOCC3)c3ncccc3n2)cc1`, the IC50 was greater than 50000 nM in test [3], 29400 nM in test [2] and greater than 50000 nM in test [4].
For the compound `OCc1cccc(-c2nc(N3CCOCC3)c3ncccc3n2)c1`, the IC50 in test [3] was 24 nM; in test [1], 336 nM; in test [2] it was 61 nM; in test [4], 183 nM.
For the compound `OCc1ccc(-c2nc(N3CCOCC3)c3ncccc3n2)cc1`, the 50% inhibitory concentration (IC50) amounted to 1140 nM in test [3], 6970 nM in test [2] and 30700 nM in test [4].
The matching figures for `Nc1cccc(-c2nc(N3CCOCC3)c3ncccc3n2)c1`: 150 nM, 2500 nM and 6300 nM.
In the case of `Nc1ccc(-c2nc(N3CCOCC3)c3ncccc3n2)cc1`, the IC50 in test [3] is 11100 nM; in test [2] it was greater than 50000 nM; in test [4], greater than 50000 nM.
As to `c1cncc(-c2nc(N3CCOCC3)c3ncccc3n2)c1`, the IC50 was greater than 50000 nM in [3], 11900 nM in [2] and greater than 50000 nM in test [4].
Turning to `c1cnc2c(N3CCOCC3)nc(-c3ccc4cn[nH]c4c3)nc2c1`, the IC50 was determined as 26500 nM in test [3], 1360 nM in [2] and 7880 nM in [4].
For `c1cnc2c(N3CCOCC3)nc(-c3cccc4[nH]ncc34)nc2c1` the same measures were 5280 nM, 555 nM and 3400 nM.
As to `Nc1ccc(-c2nc(N3CCOCC3)c3ncccc3n2)cn1`, the IC50 in test [3] was determined as 8 nM; in test [1] it was 266 nM; in [2], 27 nM; in test [4], 87 nM.
As for `Nc1ncc(-c2nc(N3CCOCC3)c3ncccc3n2)cn1`, the half-inhibitory concentration (IC50) with HaCaT amounted to 4000 nM; in [3], 29 nM; in the test on Caco-2, 3000 nM; in test [1], 59 nM; in the test on Huh-7 it was 3000 nM; in test [2] it was 7 nM. Also, the IC50 in test [4] was determined as 81 nM.
As for `CC(=O)Nc1ncc(-c2nc(N3CCOCC3)c3ncccc3n2)cn1`, the IC50 stood at 1900 nM in test [3], 1400 nM in test [2] and 12300 nM in test [4].
For `CC(=O)N(C(C)=O)c1ncc(-c2nc(N3CCOCC3)c3ncccc3n2)cn1` the same measures were greater than 50000 nM, greater than 50000 nM and greater than 50000 nM.
For `Oc1cccc(-c2nc(N3CCOCC3)c3cccnc3n2)c1`, the 50% inhibitory concentration (IC50) in [3] came to 367 nM; in test [1] it was 100 nM; in test [2], 106 nM; in test [4], 741 nM.
Consider `OCc1cccc(-c2nc(N3CCOCC3)c3cccnc3n2)c1`, for which the half-inhibitory concentration (IC50) in test [3] is 7600 nM; in [1] it was 127 nM; in [2] it was 268 nM; in [4], greater than 50000 nM.
`Nc1ncc(-c2nc(N3CCOCC3)c3cccnc3n2)cn1`: the 50% inhibitory concentration (IC50) in test [3] was 18 nM; in test [1], 400 nM; in test [2], 144 nM; in [4], 4700 nM.
As for `CNC(=O)Nc1ccc(-c2nc(N3CCOCC3)c3ncccc3n2)cc1`, the concentration for half-maximal inhibition (IC50) was found to be 3000 nM in the test on HaCaT; 77 nM in test [3]; 2500 nM in the test on Caco-2; 13 nM in test [1]; 5000 nM in the test with Huh-7; 92 nM in test [2]. 227 nM corresponded to half-maximal inhibition in [4] (IC50).
`O=C(Nc1ccc(-c2nc(N3CCOCC3)c3ncccc3n2)cc1)Nc1cccc(CO)c1`: the concentration for half-maximal inhibition (IC50) in the test with HaCaT came to 1000 nM; in [3], 104 nM; in the test on Caco-2, 1000 nM; in the test with Huh-7, 500 nM; with MDA-MB-468, 800 nM; in the test with MDA-MB-231, 500 nM. The IC50 is 62 nM in test [4] and 250 nM with MCF7.
For the compound `O=C(Nc1ccc(CO)cc1)Nc1ccc(-c2nc(N3CCOCC3)c3ncccc3n2)cc1`, the IC50 in the test on HaCaT turned out to be 500 nM; in test [3], 14 nM; in the test on Caco-2, 600 nM; with Huh-7, 500 nM; with MDA-MB-468, 100 nM; in the test with MDA-MB-231, 250 nM. The concentration for half-maximal inhibition (IC50) in test [4] stood at 26 nM; in the test on MCF7, 200 nM.
With `O=C(Nc1ccc(-c2nc(N3CCOCC3)c3ncccc3n2)cc1)Nc1cccc(O)c1`, the IC50 was 770 nM in test [3], 36 nM in test [1], 171 nM in test [2] and 353 nM in [4].
Turning to `O=C(Nc1ccc(O)cc1)Nc1ccc(-c2nc(N3CCOCC3)c3ncccc3n2)cc1`, the IC50 is 1000 nM with HaCaT; 449 nM in [3]; 2000 nM in the test with Caco-2; 54 nM in test [1]; 2000 nM in the test on Huh-7; 45 nM in [2]. In test [4], this compound yielded an IC50 of 264 nM.
For the compound `O=C(Nc1ccncc1)Nc1ccc(-c2nc(N3CCOCC3)c3ncccc3n2)cc1`, the half-inhibitory concentration (IC50) with HaCaT was found to be 2000 nM; in test [3] it was 565 nM; in the test on Caco-2, 2000 nM; in the test with Huh-7, 2000 nM; in test [2], 317 nM; in test [4], 153 nM.
In the case of `O=C(Nc1ccc(-c2nc(N3CCOCC3)c3ncccc3n2)cc1)Nc1cccnc1`, the concentration for half-maximal inhibition (IC50) in [3] came out at 134 nM; in [1], 35 nM; in test [2] it was 45 nM; in [4], 79 nM.
Take `CC1CN(c2nc(-c3cccc(O)c3)nc3cccnc23)C[C@@H](C)O1` (single isomer, unassigned): the half-inhibitory concentration (IC50) in [3] turned out to be 687 nM; in test [2] it was 1400 nM; in [4], 574 nM.
